Assay [1] addresses T1, h5-HT transporter (Homo sapiens, UniProt P31645).
T1 construct: Human platelet membranes (Oceanix Biosciences Corporation, Hanover, Md., USA) were thawed; tissue Oceanix Biosciences Corporation, Hanover, Md., USA; host or cells: human platelet membranes
The assay is described as follows: Radioligand binding experiment for 5-HT transporter ([3H]paroxetine, human platelet membranes). As to conditions: for IC50: read-out: 5HTT pIC50 (converted). On the procedure: (§1) The interaction of the compounds of Formula (I) with hα2-receptors and h5-HT-transporters was assessed in in vitro radioligand binding experiments. In general, a low concentration of a radioligand with a high binding affinity for a particular receptor or transporter is incubated with a sample of a tissue preparation enriched in a particular receptor or transporter or with a preparation of cells expressing cloned human receptors in a buffered medium. During the incubation, the radioligand binds to the receptor or transporter. When equilibrium of binding is reached, the receptor bound radioactivity is separated from the non-bound radioactivity, and the receptor- or transporter-bound activity is counted. The interaction of the test compounds with the receptor is assessed in competition binding experiments. Various concentrations of the test compound are added to the incubation mixture containing the receptor- or transporter preparation and the radioligand. The test compound in proportion to its binding affinity and its concentration inhibits binding of the radioligand. The radioligand used for hα2A, hα2B and hα2C receptor binding was [^3H]-raulwolscine and for the h5-HT transporter was [^3H]paroxetine.
Human platelet membranes (Oceanix Biosciences Corporation, Hanover, Md., USA) were thawed, diluted in buffer (Tris-HCl 50 mM, 120 mM NaCl and 5 mM KCl) and quickly (max 3 s) homogenised with an Ultraturrax homogenizer. […] Filters were rinsed extensively with ice-cold buffer and radioactivity on the filters was counted in a Topcount liquid scintillation counter (Packard, Meriden, Conn.). Data were expressed as cpm. Imipramine (at 1 μM final concentration) was used to determine the non-specific binding.
(§2) Data from assays in the presence of compound were calculated as a percentage of total binding measured in the absence of test compound. Inhibition curves, plotting percent of total binding versus the log value of the concentration of the test compound, were automatically generated, and sigmoidal inhibition curves were fitted using non-linear regression. The pIC50 values of test compounds were derived from individual curves.

In assay [2] the target is T2, hα2C receptor (Homo sapiens, UniProt P18825).
T2 construct: expressed in transfected cells
T2 sequence (P18825 1-462): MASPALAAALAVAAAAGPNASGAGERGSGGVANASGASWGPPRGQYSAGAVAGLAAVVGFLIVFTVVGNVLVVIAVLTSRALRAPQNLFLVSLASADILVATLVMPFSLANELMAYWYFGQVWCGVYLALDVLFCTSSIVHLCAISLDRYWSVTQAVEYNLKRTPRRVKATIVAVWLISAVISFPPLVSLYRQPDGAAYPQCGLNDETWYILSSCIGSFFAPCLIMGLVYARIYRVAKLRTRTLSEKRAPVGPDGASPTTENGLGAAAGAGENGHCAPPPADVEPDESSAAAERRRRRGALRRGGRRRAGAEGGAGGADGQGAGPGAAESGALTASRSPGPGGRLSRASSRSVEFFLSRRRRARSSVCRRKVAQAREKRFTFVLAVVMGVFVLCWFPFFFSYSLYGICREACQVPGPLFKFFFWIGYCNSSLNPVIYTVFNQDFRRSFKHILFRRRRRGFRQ
The assay can be described thus: Radioligand binding experiment for hα2C receptor ([3H]-raulwolscine). As to conditions: for IC50: read-out: hα2C pIC50 (converted). On the procedure: as §1
(§3) CHO cells, stabile transfected with human adrenergic-α2A-, -α2B or α2C receptor cDNA, were cultured in Dulbecco's Modified Eagle's Medium (DMEM)/Nutrient mixture Ham's F12 (ratio 1:1)(Gibco, Gent-Belgium) supplemented with 10% heat inactivated fetal calf serum (Life Technologies, Merelbeke-Belgium) and antibiotics (100 IU/ml penicillin G, 100 μg/ml streptomycin sulphate, 110 μg/ml pyruvic acid and 100 μg/ml L-glutamine). One day before collection, cells were induced with 5 mM sodiumbutyrate. Upon 80–90% of confluence, cells were scraped in phosphate buffered saline without Ca^2+ and Mg^2+ and collected by centrifugation at 1500×g for 10 min. The cells were homogenised in Tris-HCl 50 mM using an Ultraturrax homogenizer and centrifuged for 10 min at 23,500×g. The pellet was washed once by resuspension and rehomogenization and the final pellet was resuspended in Tris-HCl, divided in 1 ml aliquots and stored at −70° C.
(§4) Membranes were thawed and re-homogenized in incubation buffer (glycylglycine 25 mM, pH 8.0). […] Filters were rinsed extensively with ice-cold rinsing buffer (Tris-HCl 50 mM pH 7.4). Filter-bound radioactivity was determined by scintillation counting in a Topcount (Packard, Meriden, Conn.) and results were expressed as counts per minute (cpm). Non-specific binding was determined in the presence of 1 μM oxymetazoline for hα2A- and hα2B receptors and 1 μM spiroxatrine for hα2C receptors.
as §2

Assay [3] addresses T3, hα2B receptor (Homo sapiens, UniProt P18089).
T3 construct: expressed in transfected cells
T3 sequence (P18089 1-450): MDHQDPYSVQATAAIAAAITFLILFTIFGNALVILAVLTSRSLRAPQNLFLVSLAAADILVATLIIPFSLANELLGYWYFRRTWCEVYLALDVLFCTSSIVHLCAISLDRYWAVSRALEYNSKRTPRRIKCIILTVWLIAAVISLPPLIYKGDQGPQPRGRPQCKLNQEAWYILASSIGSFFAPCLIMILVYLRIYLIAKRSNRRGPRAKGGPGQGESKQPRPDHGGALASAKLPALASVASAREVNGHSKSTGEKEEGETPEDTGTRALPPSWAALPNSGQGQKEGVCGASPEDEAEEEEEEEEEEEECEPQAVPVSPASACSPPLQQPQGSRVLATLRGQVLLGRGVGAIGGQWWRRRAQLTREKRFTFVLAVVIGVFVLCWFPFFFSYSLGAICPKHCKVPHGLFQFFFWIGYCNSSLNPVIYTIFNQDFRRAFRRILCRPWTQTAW
The assay is described as follows: Radioligand binding experiment for hα2B receptor ([3H]-raulwolscine). Particulars: for IC50: read-out: hα2B pIC50 (converted). Here is the method:
as §1, §3, §4, §2

Setting [4] is: human platelet membranes, [3H]paroxetine 0.5 nM.
Setting [5] is: membranes of CHO cells expressing human α2C receptor, [3H]raulwolscine 1 nM.
Where [6] appears, read: membranes of CHO cells expressing human α2B receptor, [3H]raulwolscine 1 nM.

Like-named read-outs stand apart in the source and are kept apart here.

T1 sequence (P31645 whole entry): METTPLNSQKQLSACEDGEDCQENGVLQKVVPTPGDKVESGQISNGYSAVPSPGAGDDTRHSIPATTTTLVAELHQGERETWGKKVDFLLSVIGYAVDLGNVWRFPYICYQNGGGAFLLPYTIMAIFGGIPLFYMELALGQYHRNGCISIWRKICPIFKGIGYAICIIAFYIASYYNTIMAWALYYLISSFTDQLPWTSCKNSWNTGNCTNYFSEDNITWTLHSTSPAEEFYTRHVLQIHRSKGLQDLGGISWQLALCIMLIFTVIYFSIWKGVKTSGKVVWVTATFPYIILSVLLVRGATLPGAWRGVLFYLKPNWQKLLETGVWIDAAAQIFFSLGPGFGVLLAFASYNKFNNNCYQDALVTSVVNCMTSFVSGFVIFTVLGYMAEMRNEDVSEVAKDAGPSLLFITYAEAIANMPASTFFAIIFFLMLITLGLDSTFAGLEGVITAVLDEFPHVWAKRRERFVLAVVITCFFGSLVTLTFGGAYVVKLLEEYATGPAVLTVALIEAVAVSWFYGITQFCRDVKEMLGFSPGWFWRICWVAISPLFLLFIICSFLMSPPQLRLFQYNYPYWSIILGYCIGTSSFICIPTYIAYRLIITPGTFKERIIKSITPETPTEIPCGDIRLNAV

As to `COc1cc2c(cc1OC)C1=NOC(CN3CCN(Cc4ccccc4C(F)(F)F)CC3)C1CO2` (stereo not shown) [Compound 79], the IC50 in assay [1] (setting [4]) and in assay [2] (setting [5]) was 1000 nM throughout.
In the case of `COc1cc2c(cc1OC)C1=NOC(CN3CCN(C/C=C/c4ccccc4)CC3)C1CO2` (single isomer, unassigned) [Compound 1], the IC50 was 3.24 nM in assay [3] and 5.13 nM in assay [1].
For `COCCOc1ccc2c(c1)OCC1C2=NOC1CN1CCN(CC(C)=Cc2ccccc2)CC1` (stereo not shown) [Compound 239], the IC50 in assay [3] (setting [6]) was 2.4 nM; in assay [1] (setting [4]) it was 14.1 nM; in assay [2] (setting [5]), 0.288 nM.
With `COc1ccc2c(c1)OCC1C2=NOC1CN1CCN(CC=Cc2ccccc2)CC1` (stereo not shown) [Compound 217], the IC50 was 6.17 nM in assay [3] (setting [6]), 53.7 nM in assay [1] (setting [4]) and 14.1 nM in assay [2].
In the case of `COc1cc2c(cc1OC)C1=NOC(CN3CCN(Cc4ccc5ccccc5c4)CC3)C1CN2` (stereo not shown) [Compound 272], the IC50 is 26.9 nM in assay [3] (setting [6]), 4.79 nM in assay [1] and 135 nM in assay [2] (setting [5]).
With `COc1cc2c(cc1OC)C1=NOC(CN3CCN(C/C=C(\C)c4ccccc4)CC3)C1CO2` (single isomer, unassigned) [Compound 320], the IC50 in assay [3] is 20 nM; in assay [1], 32.4 nM; in assay [2] it was 6.76 nM.
As for `CC(=Cc1ccccc1)CN1CCN(CC2ON=C3c4ccc(OC5CCCC5)cc4OCC32)CC1` (stereo not shown) [Compound 243], the “hα2B pIC50” value in assay [3] (setting [6]) was 7.77. In addition, in assay [1] (setting [4]), the “5HTT pIC50” value was found to be 6.75. Further, the “hα2C pIC50” value in assay [2] (setting [5]) stood at 8.29.
With `COc1cc2c(cc1OC)C1=NOC(CN3CCN(CC=Cc4cccc(F)c4)CC3)C1CN2` (stereo not shown) [Compound 351], in assay [3] (setting [6]), the “hα2B pIC50” value came to 8.16. In assay [1] (setting [4]), the “5HTT pIC50” value is 8.06. For the same compound, in assay [2] (setting [5]), the “hα2C pIC50” value is recorded as 8.19.
`CC(=Cc1ccccc1)CN1CCN(CC2ON=C3c4ccc(O)cc4OCC32)CC1` (stereo not shown) [Compound 237]: the values for the IC50 in assay [3] (setting [6]), in assay [1] (setting [4]) and in assay [2] (setting [5]) were 1.26 nM, 11.5 nM and 1.17 nM, respectively.
As to `COc1cc2c(cc1OC)C1=NOC(CN3CCN(Cc4ccc5ccccc5c4)CC3)C1CN2` (stereo not shown) [Compound 15], the IC50 was 14.5 nM in assay [3] (setting [6]), 17 nM in assay [1] and 11.5 nM in assay [2] (setting [5]).
For `CC(=Cc1ccccc1)CN1CCN(CC2ON=C3c4ccccc4NCC32)CC1` (stereo not shown) [Compound 234], the “hα2B pIC50” value in assay [3] (setting [6]) was determined as 8.88. Further, in assay [1] (setting [4]), the “5HTT pIC50” value was found to be 7.71. Further, the “hα2C pIC50” value in assay [2] (setting [5]) turned out to be 8.41.
As for `COc1cc2c(cc1OC)C1=NOC(CN3CCN(Cc4ccc5ccccc5c4)CC3)C1CO2` (single isomer, unassigned) [Compound 16], the IC50 in assay [3] was 6.17 nM; in assay [1] it was 3.72 nM; in assay [2], 6.76 nM.
As to `C=CC(=O)Oc1ccc2c(c1)OCC1C2=NOC1CN1CCN(CC(C)=Cc2ccccc2)CC1` (stereo not shown) [Compound 251], the “hα2B pIC50” value in assay [3] (setting [6]) amounted to 8.31. For the same compound, the “5HTT pIC50” value in assay [1] (setting [4]) came to 6.89. Besides, the “hα2C pIC50” value in assay [2] (setting [5]) is reported as 8.26.

The record behind these values is US7169786B2, “Isoxazoline derivatives as anti-depressants” (priority 2001, dated 2007).
